From patent publication US6403600B1, “Methoximinophenylacetic acid amides” (Bayer Aktiengesellschaft, priority 1998, dated 2002)

assay: logP determination by HPLC (EEC-Directive 79/831 Annex V. A8); assay type: physicochemical; settings: gradient method, acetonitrile/0.1% aqueous phosphoric acid

SMILES | logP
CON=C(C(=O)N(C)SC(F)(Cl)Cl)c1ccccc1Oc1ncnc(Oc2cccc(C)c2[N+](=O)[O-])c1F [Example 113] | 4.71
CCc1ccccc1Oc1ncnc(Oc2ccccc2C(=NOC)C(=O)N(C)SC(F)(Cl)Cl)c1F [Example 109] | 5.25
CON=C(C(=O)NC#N)c1ccccc1COc1ccccc1C [Example 4] | 3.34
CON=C(C(=O)N(C)SC(F)(F)F)c1ccccc1CON=C(C)c1ccc(OC)c(OC)c1 [Example 80] | 4.36
CCC(C)c1ccccc1Oc1ncnc(Oc2ccccc2C(=NOC)C(=O)N(C)SC(F)(Cl)Cl)c1F (stereo not shown) [Example 134] | 5.86
CON=C(C(=O)N(C)Sc1ccc(F)cc1)c1ccccc1COc1ccccc1C [Example 7] | 5.11
CON=C(C(=O)NSC(F)(Cl)Cl)c1ccccc1COc1ccccc1C [Example 28] | 4.32
CON=C(C(=O)N(C)SC(F)(Cl)Cl)c1ccccc1COc1cc(F)ccc1F [Example 69] | 4.86
CON=C(C(=O)N(C)SC(F)(Cl)Cl)c1ccccc1Oc1ncnc(Oc2ccc(N)c(Cl)c2Cl)c1F [Example 136] | 4.68
CON=C(C(=O)N(C)S(C)(=O)=O)c1ccccc1COc1ccccc1C [Example 18] | 3.82
CON=C(C(=O)N(C)SC(F)(Cl)Cl)c1ccccc1Oc1ncnc(Oc2cccc(OC)c2)c1F [Example 130] | 4.68
CON=C(C(=O)N(C)SC(C)(C)C)c1ccccc1COc1ccccc1C [Example 55] | 5.05
CON=C(C(=O)N(C)C(=O)N(C)SC(F)(Cl)Cl)c1ccccc1COc1ccccc1C [Example 16] | 5.08
CON=C(C(=O)N(C)SC(F)(Cl)Cl)c1ccccc1Oc1ncnc(Oc2cccc(C)c2)c1F [Example 128] | 4.98
C=CCc1ccccc1Oc1ncnc(Oc2ccccc2C(=NOC)C(=O)N(C)SC(F)(Cl)Cl)c1F [Example 122] | 5.3
CON=C(C(=O)N(C)SC)c1ccccc1CON=C(C)c1cccc(C(F)(F)F)c1 [Example 71] | 4.73

SMILES | logP
CON=C(C(=O)N(C)SC(F)(F)F)c1ccccc1COc1ccccc1C [Example 56] | 4.93
CON=C(C(C)=NOCc1ccccc1C(=NOC)C(=O)N(C)SC(F)(Cl)Cl)c1ccccc1 [Example 143] | 5.48
CCSCc1ccccc1OCc1ccccc1C(=NOC)C(=O)N(C)SC(F)(Cl)Cl [Example 58] | 5.59
CON=C(C(=O)N(C)SC(F)(Cl)Cl)c1ccccc1CON=C(C)c1cccc(F)c1 [Example 83] | 5.36
CON=C(C(=O)N(C)SC(F)(Cl)Cl)c1ccccc1Oc1ncnc(Oc2cccc3c2OC(C)(C)C3)c1F [Example 96] | 5.27
CON=C(C(=O)N(C)SC)c1ccccc1COc1ccccc1C [Example 54] | 4.22
CCSCc1ccccc1Oc1ncnc(Oc2ccccc2C(=NOC)C(=O)N(C)SC(F)(Cl)Cl)c1F [Example 95] | 5.36
CON=C(C(=O)N(C)SC(F)(F)F)c1ccccc1CON=C(C)c1cccc(C(F)(F)F)c1 [Example 75] | 5.36
CON=C(C(=O)N(C)Sc1ccc(C(=O)OC)cc1)c1ccccc1COc1ccccc1C [Example 13] | 4.89
CON=C(C(=O)N(C)C(=O)N(SC(F)(Cl)Cl)c1ccc(Cl)cc1)c1ccccc1COc1ccccc1C [Example 34] | 6.21
CON=C(C(=O)N(SC(F)(Cl)Cl)SC(F)(Cl)Cl)c1ccccc1COc1ccccc1C [Example 51] | 6.61
CON=C(C(=O)N(C)Sc1cccc(C(F)(F)F)c1)c1ccccc1CON=C(C)c1cccc(C(F)(F)F)c1 [Example 74] | 5.84
CON=Cc1cccc(Oc2ncnc(Oc3ccccc3C(=NOC)C(=O)N(C)SC(F)(Cl)Cl)c2F)c1 [Example 100] | 5.81
CCOCN(C)C(=O)C(=NOC)c1ccccc1CON=C(C)c1cccc(C(F)(F)F)c1 [Example 39] | 4.58
CON=C(C(=O)N(C)Sc1ccc(C)cc1)c1ccccc1COc1ccccc1C [Example 24] | 5.45
